Laboratory results: patent US10202388B2, “Fused-ring compounds, pharmaceutical composition and uses thereof” (SHANGHAI DE NOVO PHARMATECH CO., LTD., priority 2015, dated 2019)

Experiments:
Human recombinant IDO1 = Human recombinant IDO1 (Homo sapiens (Human), UniProt P14902); test: IDO1 enzymatic assay (UV absorption at 321 nm); format: biochemical; settings: human recombinant IDO1, 80 min incubation, room temperature; read-out: hIDO1 IC50
Procedure: The detailed experimental method is as follow:
The compounds described in this disclosure were dissolved in 10% DMSO to predefined concentration. All of the reactions were conducted at room temperature in this disclosure. Human recombinant IDO1 (BPS Bioscience) was added so that its concentration was 200 nm in the reaction buffer solution (200 μL). […] 10 μL test compound solution was added into the above reaction solution (200 μL), so that the final concentration of DMSO in all reaction wells was 0.5%. % concentration was volume %. After 80 min incubation of the reaction solution, the UV absorbance was measured using TECAN Infinite M1000 plate reader. For the negative control (blank), 10 μl of the assay buffer was added instead of the IDO1
All reagents (excluding human recombinant IDO1) were purchased from Sigma Aldrich, MO, USA.
(§1) The percent activity in the presence of each compound was calculated according to the following equation: % activity=[(A−Ab)/(At−Ab)]×100, where A=the absorption signal in the presence of the compound, Ab=the absorption signal of blank, At=the absorption signal in the absence of the compound. […] The IC50 was calculated using non-linear regression in Graph Pad Prism® 4.

HeLa cell IDO1 = HeLa cell IDO1 (Homo sapiens (Human), UniProt P14902); test: HeLa cell based IDO1 inhibition assay (kynurenine readout, IFN-γ induced); settings: HeLa cells
Chain of HeLa cell IDO1 (P14902 whole entry): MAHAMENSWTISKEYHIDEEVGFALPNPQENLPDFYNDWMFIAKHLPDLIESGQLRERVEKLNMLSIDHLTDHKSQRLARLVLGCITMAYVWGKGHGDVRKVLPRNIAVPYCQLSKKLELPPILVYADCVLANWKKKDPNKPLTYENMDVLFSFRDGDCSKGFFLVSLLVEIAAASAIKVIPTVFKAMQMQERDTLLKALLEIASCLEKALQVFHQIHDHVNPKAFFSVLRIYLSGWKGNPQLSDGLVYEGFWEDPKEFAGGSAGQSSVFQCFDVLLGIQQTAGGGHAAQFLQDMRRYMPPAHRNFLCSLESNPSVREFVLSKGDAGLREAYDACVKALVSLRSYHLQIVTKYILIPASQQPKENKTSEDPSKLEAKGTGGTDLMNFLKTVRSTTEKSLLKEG
Procedure: HeLa cell line was purchased from ATCC, cultured in MEM/EBSS medium supplemented with 10% FBS, penn-step (100,000 U/L), non-essential amino acid (0.1 Mm), sodium pyruvate (1.0 Mm). Cells were cultured at 37° C., 95% humidity and 5% CO2. […] The detailed experimental method is as follow:
25,000 HeLa cells were placed on 96-well plates. Each well contained 100 μl culture medium, subsequently IFN-γ and test compounds at specific concentrations (concentration range between 10 μM and 1 Nm, so that the final volume of culture medium was 200 μL) were added and IFN-γ was used to induce IDO1 expression. After incubation, 140 μL supernatant was transferred to 96-well plates. After adding 6.1 N TCA (10 μL), the plates were continuously incubated at 50° C. for 30 min, to hydrolyze N-formylkynurenine produced by IDO to kynurenine. The reaction solution was then centrifuged at 2500 rpm for 10 min to remove precipitate. 100 μL/well supernatant was then transferred to another 96-well plate. 100 μL of 2% (w/v) 4-N,N-dimethyl aminobenzaldehyde acetic acid solution was added and incubated at room temperature for 10 min. The yellow color derived from kynurenine was recorded by measuring absorbance at 480 nm using a microplate reader (TECAN Infinite M1000 Pro).

recombinant TDO2 = recombinant TDO2 (Homo sapiens (Human), UniProt P48775); test: TDO2 enzymatic assay (UV absorption at 321 nm); format: biochemical; settings: 50 nM TDO2, 200 μM tryptophan, 75 min
Chain of recombinant TDO2 (P48775 whole entry, species assumed): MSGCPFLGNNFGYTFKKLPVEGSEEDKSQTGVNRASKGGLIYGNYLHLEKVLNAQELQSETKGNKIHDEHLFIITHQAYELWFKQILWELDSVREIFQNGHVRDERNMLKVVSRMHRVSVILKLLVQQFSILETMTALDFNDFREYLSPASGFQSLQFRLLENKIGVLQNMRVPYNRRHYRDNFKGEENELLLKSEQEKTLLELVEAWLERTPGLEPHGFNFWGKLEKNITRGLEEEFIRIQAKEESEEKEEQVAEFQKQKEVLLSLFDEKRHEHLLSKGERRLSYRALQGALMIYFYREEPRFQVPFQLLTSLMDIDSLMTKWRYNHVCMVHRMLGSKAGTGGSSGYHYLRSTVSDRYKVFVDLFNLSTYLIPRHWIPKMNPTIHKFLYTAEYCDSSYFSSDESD
Procedure: The TDO2 enzymatic assay was performed by UV absorption using a recombinant TDO2 and L-Tryptophan substrate. The UV absorption signal at 321 nm is correlated with the amount of N-formylkynurenine reaction product of TDO2. The compounds were diluted in 10% DMSO and 5 μL of the dilution was added to a 100 μL reaction so that the final concentration of DMSO is 0.5% in all of reactions. All of the reactions were conducted at room temperature. The 100 μL reaction mixture in TDO2 Assay Buffer contains 50 nM TDO2, the indicated amount of the inhibitor, 200 μM tryptophan, and the coupled reaction components. The reaction mixture incubated for 75 min prior to reading the UV absorption signal. For the negative control (blank), 5 μl of the assay buffer was added instead of the TDO2.
as §1, with “Absorption signals were measured using a Tecan Infinite M1000 plate reader. Binding experiments were performed in duplicate at each concentration. The percent” for “The percent”

HeLa cell based IDO1 = HeLa cell based IDO1 (Homo sapiens (Human), UniProt P14902); test: Three-point IDO1 cellular assay (HeLa, 10, 100 and 1000 nM); settings: HeLa cells, 100 ng/mL IFN-γ, 18 hours; for inhibition values of %: at 1000 nM
Chain of HeLa cell based IDO1 (P14902 whole entry): as the sequence (P14902 whole entry) above
Procedure: To perform the 3-point HeLa cell based IDO1 assay, HeLa cells were seeded at 25,000 cells per well into 96-well microplate in 100 μL of growth medium. Cells were incubated at 37° C. and 5% CO2 overnight. The next day 100 μL per well of diluted inhibitor in growth medium at 10, 100 and 1000 nM, respectively, was added at a final concentration of 100 ng/ML human IFN-γ. Cells were incubated at 37° C. in a CO2 incubator for 18 hours. […] The plate was incubated at 50° C. for 30 min to hydrolyze N-formylkynurenine produced by IDO1 to kynurenine. The plate was then centrifuged at 2500 rpm for 10 min to remove sediments. 100 μl of supernatant per well was transferred to another 96-well plate and mixed with 100 μL of 2% (w/v) 4-(Dimethylamino) benzaldehyde in acetic acid. The plate was incubated at room temperature for 10 minutes, the yellow color derived from kynurenine was recorded by measuring absorbance at 480 nm using a microplate reader (TECAN Infinite M1000 Pro). Cell based assays were performed in triplicate at each concentration. The absorbance data were analyzed using the computer software, Graphpad Prism. In the absence of the compound and presence of 100 ng/ML IFN-γ, the absorbance (At) in each data set was defined as 100%. The absorbance of medium blank (Ab) in each data set was defined as 0%. The percent absorbance in the presence of each compound was calculated according to the following equation: % Absorbance=(A−Ab)/(At−Ab), where A=the absorbance in the presence of the compound and IFN-γ, Ab=the absorbance of medium blank, and At=the absorbance in the absence of the compounds and presence of IFN-γ. The values of % absorbance versus the compound concentrations were then determined.

Chain of Human recombinant IDO1 (P14902 whole entry): as above

| IC50 (Human recombinant IDO1) [nM] | IC50 (HeLa cell IDO1) [nM] | IC50 (recombinant TDO2) [nM] | inhibition at 0.1 µM (HeLa cell based IDO1; at 100 nM) [%] | inhibition values of % (HeLa cell based IDO1) | Structure (SMILES) |
| --- | --- | --- | --- | --- | --- |
| < 100 | < 100 |  |  |  | O=S(=O)(Cc1ccccc1)NC1C2CC3CC1CC(C(O)CC1c4c(F)cccc4-c4cncn41)(C3)C2 (stereo not drawn) [Compound 45A] |
| < 100 | 100 to 500 |  |  |  | OC(CC1c2ccccc2-c2cncn21)C12CC3CC(CC(C3)C1)C2 (stereo not drawn) [Compound 1] |
| < 100 | < 100 |  |  |  | OCCOC1C2CC3CC1CC(C(O)CC1c4c(F)cccc4-c4cncn41)(C3)C2 (stereo not drawn) [Compound 61A] |
| < 100 | < 100 |  |  |  | O=C(CC1CCCCC1)NC1C2CC3CC1CC(C(O)CC1c4c(F)cccc4-c4cncn41)(C3)C2 (stereo not drawn) [Compound 49] |
| 100 to 500 | < 100 |  |  |  | O=C(NC1C2CC3CC1CC(C(O)CC1c4ccccc4-c4cncn41)(C3)C2)c1ccccc1 (single isomer, unassigned) [Compound 52B] |
| < 100 | < 100 |  |  |  | O=C(NC1C2CC3CC1CC(C(O)CC1c4ccccc4-c4cncn41)(C3)C2)c1ccccc1 (single isomer, unassigned) [Compound 52A] |
| < 100 | < 100 |  |  |  | O=C(C[C@@H]1c2ccccc2-c2cncn21)C12CC3CC(CC(C3)C1)C2 (single isomer, unassigned) [Compound 1-3] |
| < 100 | 100 to 500 |  |  |  | OC(CC1c2ccccc2-c2cncn21)C12CC3CC(CC(C3)C1)C2 (stereo not drawn) [Compound 13] |
| < 100 | < 100 |  |  |  | CS(=O)(=O)NC1C2CC3CC1CC(C(O)CC1c4c(F)cccc4-c4cncn41)(C3)C2 (stereo not drawn) [Compound 46] |
| < 100 |  | < 500 |  |  | CC1(O)C2CC3CC1CC(C(O)CC1c4ccccc4-c4cncn41)(C3)C2 (stereo not drawn) [Compound 11A-2] |
| 100 to 500 | 100 to 500 | 1000 to 10000 |  |  | O=S(=O)(Cc1ccccc1)NC1C2CC3CC1CC([C@@H](O)CC1c4c(F)cccc4-c4cncn41)(C3)C2 (stereo partly drawn) [Compound 45A-4] |
| < 100 | 100 to 500 |  |  |  | OC(CC1c2c(F)cccc2-c2cncn21)C12CC3CC(CC(C3)C1)C2 (stereo not drawn) [Compound 25] |
| < 100 |  |  | > 50 |  | O=C(Cc1ccccc1)NC1C2CC3CC1CC(C(O)CC1c4ccccc4-c4cncn41)(C3)C2 (single isomer, unassigned) [Compound 53A] |
| < 100 | < 100 | < 500 |  |  | OC1C2CC3CC1CC([C@H](O)CC1c4c(F)cccc4-c4cncn41)(C3)C2 (stereo partly drawn) [Compound 26A-3] |
|  |  | 10000 to 100000 |  |  | Nc1nonc1C(=NO)Nc1ccc(F)c(Cl)c1 [Ref. B, 4-amino-N-(3-chloro-4-fluorophenyl)-N′-hydroxy-1,2,5-oxadiazole-3-carboximidamide, reference compound] |
| 100 to 500 | < 100 |  |  |  | CC(C)(O)CCOC1C2CC3CC1CC(C(O)CC1c4c(F)cccc4-c4cncn41)(C3)C2 (stereo not drawn) [Compound 58] |

| IC50 (Human recombinant IDO1) [nM] | IC50 (HeLa cell IDO1) [nM] | IC50 (recombinant TDO2) [nM] | inhibition at 0.1 µM (HeLa cell based IDO1; at 100 nM) [%] | inhibition values of % (HeLa cell based IDO1) | Structure (SMILES) |
| --- | --- | --- | --- | --- | --- |
| < 100 | < 100 |  |  |  | CC1(O)C2CC3CC1CC([C@H](O)CC1c4ccccc4-c4cncn41)(C3)C2 (stereo partly drawn) [Compound 14A-4] |
| < 100 | < 100 |  |  |  | OC1C2CC3CC1CC([C@H](O)CC1c4c(F)cccc4-c4cncn41)(C3)C2 (stereo partly drawn) [Compound 26A] |
| < 100 | 100 to 500 |  |  |  | OC(CC1c2c(F)cccc2-c2cncn21)C12CC3CC(CC(O)(C3)C1)C2 (stereo not drawn) [Compound 22] |
| < 100 | 100 to 500 |  |  |  | OC(CC1c2ccccc2-c2cncn21)C12CC3CC(CC(O)(C3)C1)C2 (stereo not drawn) [Compound 9] |
| < 100 | < 100 |  |  |  | OC1C2CC3CC1CC([C@H](O)CC1c4c(F)cccc4-c4cncn41)(C3)C2 (stereo partly drawn) [Compound 23A] |
| < 100 | 100 to 500 |  |  |  | OC1C2CC3CC1CC([C@H](O)CC1c4c(F)cccc4-c4cncn41)(C3)C2 (stereo partly drawn) [Compound 23A-1] |
| 1000 to 10000 |  |  |  |  | O=C(C[C@H]1c2ccccc2-c2cncn21)C12CC3CC(CC(C3)C1)C2 (single isomer, unassigned) [Compound 1-1] |
| < 100 | < 100 |  |  |  | O=C(Nc1ccccc1)NC1C2CC3CC1CC(C(O)CC1c4c(F)cccc4-c4cncn41)(C3)C2 (stereo not drawn) [Compound 55] |
| < 100 | < 100 | < 500 |  |  | O=S(=O)(Cc1ccccc1)NC1C2CC3CC1CC([C@H](O)CC1c4c(F)cccc4-c4cncn41)(C3)C2 (stereo partly drawn) [Compound 45A-1] |
| < 100 | < 100 |  |  |  | OC(CC1c2c(F)cccc2-c2cncn21)C12CC3CC(CC(C3)C1)C2 (stereo not drawn) [Compound 21] |
| < 100 |  |  |  | greater than 50% | OC(CC1c2ccccc2-c2cncn21)C12CC3CC(C1)C(c1ccccc1)C(C3)C2 (stereo not drawn) [Compound 62A] |
| 100 to 500 |  |  |  | greater than 50% | OC1C2CC3CC1CC([C@@H](O)CC1c4c(F)cccc4-c4cncn41)(C3)C2 (stereo partly drawn) [Compound 23B] |
| < 100 | 100 to 500 |  |  |  | O=C(C[C@H]1c2ccccc2-c2cncn21)C12CC3CC(CC(C3)C1)C2 (single isomer, unassigned) [Compound 1-2] |
| 100 to 500 | 500 to 1000 |  |  |  | OC(CC1c2ncccc2-c2cncn21)C12CC3CC(CC(C3)C1)C2 (stereo not drawn) [compound 4] |
| 1000 to 10000 |  |  |  |  | OC1C2CC3CC1CC([C@H](O)CC1c4c(F)cccc4-c4cncn41)(C3)C2 (stereo partly drawn) [Compound 23A-2] |

| Structure (SMILES) | IC50 (Human recombinant IDO1) [nM] | IC50 (HeLa cell IDO1) [nM] | IC50 (recombinant TDO2) [nM] | inhibition at 0.1 µM (HeLa cell based IDO1; at 100 nM) [%] | inhibition values of % (HeLa cell based IDO1) |
| --- | --- | --- | --- | --- | --- |
| OC1C2CC3CC1CC(C(O)CC1c4ccccc4-c4cncn41)(C3)C2 (stereo not drawn) [Compound 10A] | < 100 | < 100 |  |  |  |
| OC1C2CC3CC1CC(C(O)CC1c4ccccc4-c4cncn41)(C3)C2 (stereo not drawn) [Compound 14A] | < 100 | < 100 |  |  |  |
